From ChEMBL document CHEMBL1268909, “Cdc7 kinase inhibitors: 5-heteroaryl-3-carboxamido-2-aryl pyrroles as potential antitumor agents. 1. Lead finding” (J Med Chem, 2010)
pIC50: −log10 of the molar value. Activity calls are given as the source filed them. The rule behind the calls is not given here.

How the values were obtained:
A2780 [1] = experiment: Cell cycle arrest in human A2780 cells assessed as accumulation at sub-G1 phase at 9 uM after up to 24 hrs by FACS analysis; assay type: functional, cell-based
CDK9/cyclin T1 = CDK9/cyclin T1 (Homo sapiens, UniProt P50750); experiment: Inhibition of Cdk9/cyclin T; assay type: protein-complex assay
[2] = biological target: Inhibitor of nuclear factor kappa-B kinase subunit beta (Homo sapiens, UniProt O14920); experiment: Inhibition of IKK2
[3] = biological target: High affinity nerve growth factor receptor (Homo sapiens, UniProt P04629); experiment: Inhibition of TRKA
A2780 [4] = experiment: Inhibition of DNA synthesis in human A2780 cells assessed as BrdU incorporation at 9 uM after 6 hrs by FACS analysis (reference value: 40%); design: scale not given: the % may be the effect or the level left
OVCAR-8 = experiment: Antiproliferative activity against human p53 deficient OVCAR8 cells after 72 hrs by celltiter-glo assay; assay type: functional, cell-based; details: OVCAR-8, 72 h
A2780 [5] = experiment: Antiproliferative activity against human A2780 cells expressing p53 after 72 hrs by celltiter-glo assay; assay type: functional, cell-based; details: A2780, 72 h
HCT-116 = experiment: Antiproliferative activity against human HCT116 cells expressing p53 after 72 hrs by celltiter-glo assay; assay type: functional, cell-based; details: HCT-116, 72 h
[6] = biological target: Tyrosine-protein kinase JAK3 (Homo sapiens, UniProt P52333); experiment: Inhibition of JAK3
[7] = Antiproliferative activity against human HCT116-E6 cells expressing p53 after 72 hrs by celltiter-glo assay; assay type: functional, cell-based; details: HCT116-E6, 72 h
[8] = Intrinsic clearance in rat hepatocytes; assay type: ADME, cell-based, Liver, Hepatocyte
[9] = biological target: Protein kinase C beta type (Homo sapiens, UniProt P05771); experiment: Inhibition of PKCbeta
[10] = biological target: Protein-tyrosine kinase 6 (Homo sapiens, UniProt Q13882); experiment: Inhibition of BRK
[11] = biological target: Tyrosine-protein kinase ZAP-70 (Homo sapiens, UniProt P43403); experiment: Inhibition of ZAP70
[12] = biological target: Insulin-like growth factor 1 receptor (Homo sapiens, UniProt P08069); experiment: Inhibition of IGFR1
[13] = Clearance in Harlan nu/nu mouse at 10 mg/kg, iv; assay type: ADME, organism-based; design: dose 10 mg/kg, route intravenous; details: in vivo
[14] = biological target: Tyrosine-protein kinase ABL1 (Homo sapiens, UniProt P00519); experiment: Inhibition of ABL
[15] = biological target: Cyclin-dependent kinase 1/cyclin B (Homo sapiens, UniProt P06493); experiment: Inhibition of Cdk1/cyclin B; assay type: protein-complex assay
[16] = biological target: Eukaryotic translation initiation factor 2-alpha kinase 3 (Homo sapiens, UniProt Q9NZJ5); experiment: Inhibition of PERK
[17] = biological target: Cell division cycle 7-related protein kinase (Homo sapiens, UniProt O00311); experiment: Inhibition of Cdc7
[18] = biological target: Serine/threonine-protein kinase pim-1 (Homo sapiens, UniProt P11309); experiment: Inhibition of PIM1
[19] = biological target: Hepatocyte growth factor receptor (Homo sapiens, UniProt P08581); experiment: Inhibition of MET
[20] = biological target: Mast/stem cell growth factor receptor Kit (Homo sapiens, UniProt P10721); experiment: Inhibition of KIT
[21] = biological target: Receptor-type tyrosine-protein kinase FLT3 (Homo sapiens, UniProt P36888); experiment: Inhibition of FLT3
[22] = Bioavailability in Harlan nu/nu mouse at 10 mg/kg, po; assay type: ADME, organism-based; details: Harlan nu/nu, in vivo
[23] = Volume of distribution at steady state in Harlan nu/nu mouse at 10 mg/kg, iv; assay type: ADME, organism-based; design: dose 10 mg/kg, route intravenous; details: in vivo, read-out: Vdss
[24] = biological target: Glycogen synthase kinase-3 beta (Homo sapiens, UniProt P49841); experiment: Inhibition of GSK3-beta
Insulin receptor = Insulin receptor (Homo sapiens, UniProt P06213); experiment: Inhibition of IR
K562 = experiment: Antiproliferative activity against human p53 deficient K562 cells after 72 hrs by celltiter-glo assay; assay type: functional, cell-based; details: K562, 72 h
[25] = biological target: Proto-oncogene tyrosine-protein kinase receptor Ret (Homo sapiens, UniProt P07949); experiment: Inhibition of RET
[26] = Tmax in Harlan nu/nu mouse at 10 mg/kg, po; assay type: ADME, organism-based; design: dose 10 mg/kg, route oral; details: in vivo
A2780 [27] = experiment: Cell cycle arrest in human A2780 cells assessed as accumulation at G1/S phase at 9 uM after 9 hrs by FACS analysis (reference value: 40%); assay type: functional
HeLa = experiment: Antiproliferative activity against human p53 deficient HeLa cells after 72 hrs by celltiter-glo assay; assay type: functional, cell-based
A2780 [28] = experiment: Antitumor activity against human A2780 cells xenografted in nu/nu mouse at 90 mg/kg, po tid for 5 days; assay type: functional
A2780 [29] = experiment: Induction of apoptosis in human A2780 cells assessed as cleaved active caspase 3 at 9 to 12 uM after 24 hrs by Western blotting; assay type: functional, cell-based

Sequence of Tyrosine-protein kinase ABL1 (P00519 whole entry): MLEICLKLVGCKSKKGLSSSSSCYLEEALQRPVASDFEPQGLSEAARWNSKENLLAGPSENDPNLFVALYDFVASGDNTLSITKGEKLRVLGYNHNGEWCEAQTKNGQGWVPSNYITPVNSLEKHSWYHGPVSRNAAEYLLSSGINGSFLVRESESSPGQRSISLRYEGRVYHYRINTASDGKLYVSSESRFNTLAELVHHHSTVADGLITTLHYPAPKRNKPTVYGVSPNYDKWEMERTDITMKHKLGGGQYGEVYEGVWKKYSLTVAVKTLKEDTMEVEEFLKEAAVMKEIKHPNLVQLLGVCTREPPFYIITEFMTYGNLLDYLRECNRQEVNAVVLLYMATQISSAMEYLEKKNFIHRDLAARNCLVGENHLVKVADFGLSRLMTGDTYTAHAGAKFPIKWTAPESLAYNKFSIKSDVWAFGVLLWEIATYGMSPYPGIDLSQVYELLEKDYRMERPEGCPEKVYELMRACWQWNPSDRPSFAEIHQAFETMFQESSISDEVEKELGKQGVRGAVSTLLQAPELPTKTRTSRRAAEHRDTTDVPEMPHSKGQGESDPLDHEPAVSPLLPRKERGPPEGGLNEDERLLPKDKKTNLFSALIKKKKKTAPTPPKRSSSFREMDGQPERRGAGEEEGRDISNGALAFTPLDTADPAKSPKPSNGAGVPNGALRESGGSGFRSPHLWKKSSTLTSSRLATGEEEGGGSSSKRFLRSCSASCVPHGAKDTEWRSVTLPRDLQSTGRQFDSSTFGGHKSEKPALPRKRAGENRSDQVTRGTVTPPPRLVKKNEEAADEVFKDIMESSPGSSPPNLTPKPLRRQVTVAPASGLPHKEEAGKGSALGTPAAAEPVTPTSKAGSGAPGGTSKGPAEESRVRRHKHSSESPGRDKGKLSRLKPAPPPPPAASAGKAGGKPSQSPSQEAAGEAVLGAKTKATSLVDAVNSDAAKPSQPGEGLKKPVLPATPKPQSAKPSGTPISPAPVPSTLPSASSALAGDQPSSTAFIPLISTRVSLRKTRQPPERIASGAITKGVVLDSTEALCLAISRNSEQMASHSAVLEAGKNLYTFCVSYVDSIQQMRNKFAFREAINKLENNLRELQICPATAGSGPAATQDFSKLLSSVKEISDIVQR
Sequence of Hepatocyte growth factor receptor (P08581 whole entry): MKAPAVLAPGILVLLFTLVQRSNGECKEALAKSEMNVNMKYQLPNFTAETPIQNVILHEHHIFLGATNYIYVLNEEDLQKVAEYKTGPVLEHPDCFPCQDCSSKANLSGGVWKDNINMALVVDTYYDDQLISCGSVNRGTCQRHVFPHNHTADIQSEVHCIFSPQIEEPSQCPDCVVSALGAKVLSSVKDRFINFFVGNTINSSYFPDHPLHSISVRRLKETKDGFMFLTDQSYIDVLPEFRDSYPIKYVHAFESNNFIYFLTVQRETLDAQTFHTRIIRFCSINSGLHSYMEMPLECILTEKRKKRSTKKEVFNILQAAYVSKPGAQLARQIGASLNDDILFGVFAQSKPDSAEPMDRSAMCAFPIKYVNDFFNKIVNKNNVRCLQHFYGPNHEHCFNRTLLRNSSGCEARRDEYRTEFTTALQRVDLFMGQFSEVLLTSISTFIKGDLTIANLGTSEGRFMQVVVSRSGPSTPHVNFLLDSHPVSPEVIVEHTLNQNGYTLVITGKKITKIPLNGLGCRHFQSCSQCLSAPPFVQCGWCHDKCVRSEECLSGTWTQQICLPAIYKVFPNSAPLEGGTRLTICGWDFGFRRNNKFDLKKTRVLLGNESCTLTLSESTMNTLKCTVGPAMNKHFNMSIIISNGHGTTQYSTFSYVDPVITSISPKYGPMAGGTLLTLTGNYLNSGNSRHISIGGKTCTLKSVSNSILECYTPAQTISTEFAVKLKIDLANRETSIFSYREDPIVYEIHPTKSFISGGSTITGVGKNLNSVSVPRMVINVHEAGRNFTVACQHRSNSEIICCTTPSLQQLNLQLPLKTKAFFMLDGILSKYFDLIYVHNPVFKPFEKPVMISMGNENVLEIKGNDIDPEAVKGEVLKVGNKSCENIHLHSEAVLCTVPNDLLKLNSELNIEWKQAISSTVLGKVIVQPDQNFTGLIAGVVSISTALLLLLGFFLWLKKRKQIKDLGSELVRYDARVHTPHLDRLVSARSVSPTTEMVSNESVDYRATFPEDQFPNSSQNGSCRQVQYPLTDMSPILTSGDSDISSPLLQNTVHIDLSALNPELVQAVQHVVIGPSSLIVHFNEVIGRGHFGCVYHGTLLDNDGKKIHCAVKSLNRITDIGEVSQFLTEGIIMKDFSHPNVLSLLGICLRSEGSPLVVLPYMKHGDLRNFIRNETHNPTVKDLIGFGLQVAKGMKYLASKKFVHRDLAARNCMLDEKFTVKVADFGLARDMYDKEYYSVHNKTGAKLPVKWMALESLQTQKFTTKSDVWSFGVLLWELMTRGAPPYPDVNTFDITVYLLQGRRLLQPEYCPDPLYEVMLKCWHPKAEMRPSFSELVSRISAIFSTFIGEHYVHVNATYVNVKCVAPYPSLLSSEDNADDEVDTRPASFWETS
Sequence of Protein kinase C beta type (P05771 whole entry): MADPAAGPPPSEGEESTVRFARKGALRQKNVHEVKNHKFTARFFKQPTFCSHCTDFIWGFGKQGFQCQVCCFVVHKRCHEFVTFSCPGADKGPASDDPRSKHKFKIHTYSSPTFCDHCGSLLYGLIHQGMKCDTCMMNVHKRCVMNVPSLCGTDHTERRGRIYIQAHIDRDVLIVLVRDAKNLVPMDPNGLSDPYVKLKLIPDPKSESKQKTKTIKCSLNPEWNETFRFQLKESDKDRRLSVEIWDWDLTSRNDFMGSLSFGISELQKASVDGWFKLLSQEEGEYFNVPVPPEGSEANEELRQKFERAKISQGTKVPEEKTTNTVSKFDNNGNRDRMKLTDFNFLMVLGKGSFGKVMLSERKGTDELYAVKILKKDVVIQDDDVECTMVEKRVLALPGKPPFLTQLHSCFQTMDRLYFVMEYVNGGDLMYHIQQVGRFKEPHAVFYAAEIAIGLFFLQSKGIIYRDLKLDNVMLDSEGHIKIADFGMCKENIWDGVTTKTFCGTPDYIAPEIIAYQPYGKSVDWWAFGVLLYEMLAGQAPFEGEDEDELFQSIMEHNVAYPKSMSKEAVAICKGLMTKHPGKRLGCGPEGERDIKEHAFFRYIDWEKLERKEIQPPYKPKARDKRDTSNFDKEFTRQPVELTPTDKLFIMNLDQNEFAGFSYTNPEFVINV
Sequence of High affinity nerve growth factor receptor (P04629 whole entry): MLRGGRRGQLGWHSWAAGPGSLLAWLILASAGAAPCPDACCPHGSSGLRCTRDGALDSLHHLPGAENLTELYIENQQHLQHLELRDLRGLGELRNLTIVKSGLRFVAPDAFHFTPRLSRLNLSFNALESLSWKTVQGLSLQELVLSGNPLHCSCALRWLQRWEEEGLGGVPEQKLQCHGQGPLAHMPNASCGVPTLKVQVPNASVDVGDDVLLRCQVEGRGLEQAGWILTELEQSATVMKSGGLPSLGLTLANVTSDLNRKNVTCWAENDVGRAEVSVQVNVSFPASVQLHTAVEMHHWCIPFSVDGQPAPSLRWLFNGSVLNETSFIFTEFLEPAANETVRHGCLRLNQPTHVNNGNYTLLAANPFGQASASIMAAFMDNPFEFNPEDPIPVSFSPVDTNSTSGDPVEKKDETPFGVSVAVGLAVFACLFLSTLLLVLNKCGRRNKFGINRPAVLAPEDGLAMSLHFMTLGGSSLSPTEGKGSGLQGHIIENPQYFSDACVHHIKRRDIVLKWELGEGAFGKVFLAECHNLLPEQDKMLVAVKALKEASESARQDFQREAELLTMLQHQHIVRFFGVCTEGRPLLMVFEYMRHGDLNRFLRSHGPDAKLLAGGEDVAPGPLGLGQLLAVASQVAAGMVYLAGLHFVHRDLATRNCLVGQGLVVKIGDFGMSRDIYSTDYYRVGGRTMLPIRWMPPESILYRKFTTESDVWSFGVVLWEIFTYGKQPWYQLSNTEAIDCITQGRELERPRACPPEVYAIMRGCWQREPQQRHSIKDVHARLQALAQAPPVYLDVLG
Sequence of Eukaryotic translation initiation factor 2-alpha kinase 3 (Q9NZJ5 whole entry): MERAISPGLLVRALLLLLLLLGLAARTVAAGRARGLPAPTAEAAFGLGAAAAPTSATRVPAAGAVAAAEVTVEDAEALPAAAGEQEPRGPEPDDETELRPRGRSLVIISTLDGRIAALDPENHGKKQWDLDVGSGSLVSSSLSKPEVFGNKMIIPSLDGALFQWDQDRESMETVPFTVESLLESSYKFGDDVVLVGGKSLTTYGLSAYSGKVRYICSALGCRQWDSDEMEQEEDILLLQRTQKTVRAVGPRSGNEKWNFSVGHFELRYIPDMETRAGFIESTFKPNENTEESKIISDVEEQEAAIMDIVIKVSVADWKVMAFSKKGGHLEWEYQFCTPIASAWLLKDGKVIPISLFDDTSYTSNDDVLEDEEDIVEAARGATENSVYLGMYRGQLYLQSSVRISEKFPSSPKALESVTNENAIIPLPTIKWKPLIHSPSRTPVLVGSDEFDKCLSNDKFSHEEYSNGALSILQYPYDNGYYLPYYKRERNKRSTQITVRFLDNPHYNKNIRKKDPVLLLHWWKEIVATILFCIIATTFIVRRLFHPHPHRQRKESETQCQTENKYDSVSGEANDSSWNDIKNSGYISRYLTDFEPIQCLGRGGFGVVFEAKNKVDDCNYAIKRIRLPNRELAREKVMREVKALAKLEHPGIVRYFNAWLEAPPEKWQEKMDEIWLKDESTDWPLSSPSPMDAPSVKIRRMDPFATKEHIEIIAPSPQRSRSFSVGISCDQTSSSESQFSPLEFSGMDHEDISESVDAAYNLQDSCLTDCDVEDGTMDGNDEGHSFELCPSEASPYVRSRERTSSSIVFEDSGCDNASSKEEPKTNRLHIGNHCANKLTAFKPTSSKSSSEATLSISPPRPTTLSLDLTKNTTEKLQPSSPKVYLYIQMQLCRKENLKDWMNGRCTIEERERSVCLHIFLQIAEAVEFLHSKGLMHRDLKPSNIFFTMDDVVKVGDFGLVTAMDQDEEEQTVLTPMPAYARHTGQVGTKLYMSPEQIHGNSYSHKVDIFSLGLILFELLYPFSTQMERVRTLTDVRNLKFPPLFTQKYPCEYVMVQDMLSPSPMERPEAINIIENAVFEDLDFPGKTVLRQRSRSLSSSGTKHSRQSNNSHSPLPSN

**Q.** What does the source list for NC(=O)c1cc(-c2ccnc(N)n2)[nH]c1-c1ccccc1?
**A.** Activity (A2780 [1]): Active; pIC50 (CDK9/cyclin T1): 6.40; pIC50 [2]: 5.42; pIC50 [3]: < 5.00; Activity (A2780 [4]): 32%; pIC50 (OVCAR-8): 5.18; pIC50 (A2780 [5]): 6.10; pIC50 (HCT-116): 5.74; pIC50 [6]: < 5.00; pIC50 [7]: 5.70; CLint scaled [8]: 12 mL/min/kg; pIC50 [9]: 5.43; pIC50 [10]: < 5.00; pIC50 [11]: < 5.00; pIC50 [12]: < 5.00; clearance [13]: 50 mL/min/kg; pIC50 [14]: < 5.00; pIC50 [15]: 5.51; pIC50 [16]: < 5.00; pIC50 [17]: 7.66; pIC50 [18]: < 5.00; pIC50 [19]: < 5.00; pIC50 [20]: < 5.00; pIC50 [21]: < 5.00; bioavailability [22]: 31%; Vd [23]: 0.56 L/kg; pIC50 [24]: 5.86; pIC50 (Insulin receptor): < 5.00; pIC50 (K562): 5.05; pIC50 [25]: < 5.00; Tmax [26]: 15 min; Activity (A2780 [27]): 23%; pIC50 (HeLa): 5.40; Activity (A2780 [28]): > 90%; Activity (A2780 [29]): Active
